Read-outs that look alike come from different tables or passages of the source.
Assays:
[1] = test system: 3D7-strain P. falciparum asexual parasites; assay: P. falciparum asexual growth inhibition assay (Pf GIA); assay type: cell-based, Plasmodium falciparum; details: dose response confirmation; read-out: Pf asexual growth inhibition assays IC50
Method in brief: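 3D7 parasites at 0.25% parasitemia, 2% hematocrit were exposed to compounds in dose response for 72 h at 37°C under 5% CO2, 5% O2. Viability read as parasite LDH activity (nitro blue tetrazolium, A650) after freeze-thaw; inhibition scaled to chloroquine (50 μM) and DMSO controls, mean of three biological replicates.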

HepG2 cells = assay: HepG2 cytotoxicity assay; details: for IC50: read-out: HepG2 cytotoxicity assay IC50, dose response confirmation; for Pb ODA (this manuscript) HepG2 cytoxicity: HepG2 cytotoxicity listed with the Pb ODA data set (this manuscript)
Method in brief: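 Here viability after a 48 h compound incubation (37°C, humidified 5% CO2) is measured by fluorescence and expressed as percent inhibition, with doxorubicin at 50 μM and DMSO as the bounding controls.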

[2] = test system: P. berghei ookinete development; details: for % inhibition, Replicate A / % inhibition, Replicate B: primary screen at 1 μM
[3] = unified HepG2 value across the three screens
[4] = read-out: Pb ODA IC50, this manuscript
[5] = read-out: Pb Ookinete development assay IC50, dose response confirmation
[6] = HepG2 values of the three screens unified
[7] = read-out: Pb ODA (this manuscript) IC50, P. berghei ookinete development assay, this manuscript

Row | Compound | IC50 [1] | IC50 (HepG2 cells) | Unified cytotox (HepG2 cells; [3]) | Is compound selective in assay? Pb ODA active? ([2]; 1: YES, 0: NO) | % inhibition, Replicate A [2] | % inhibition, Replicate B [2] | IC50 [2, 4] | IC50 [2, 5] | HepG2 cytoxicity (Pb ODA, this manuscript) (HepG2 cells) | Unified cytotox (HepG2 cells; [6]) | Pb ODA (this manuscript) HepG2 cytoxicity (HepG2 cells) | Is compound selective in assay? Pb ODA active? [2] | IC50 [2, 7]
1 | COc1ccc2nccc(N3CCC(NCCNCc4ccc5c(n4)NC(=O)CO5)C3)c2n1.Cl (stereo not shown) [TCMDC-134548] | 1.4 nM | 42700 nM | 42.66 µM | 1 (1: YES) | 4.96% | 51.82% | 1630 nM | 1620 nM | – | – | – | – | –
2 | COCCN(C)c1ccc(C(=O)Nc2ccccc2)cc1NS(=O)(=O)Cc1ccccc1.O=C(O)C(F)(F)F [TCMDC-134575] | 606 nM | 100000 nM | 100.00 µM | 1 (1: YES) | 51.04% | 48.31% | – | 1400 nM | – | – | – | – | –
3 | COc1ccc2ncc(C)c(CCN3CCC(NCc4ccc5c(n4)NC(=O)CS5)CC3)c2c1.Cl [TCMDC-134648] | 872 nM | 34700 nM | – | 1 (1: YES) | 66.89% | 104.06% | 2550 nM | 2550 nM | 34.67 µM | 34.67 µM | – | – | –
4 | COc1ccc2ncc(Cl)c(NCC3(O)CCC(NCc4ccc5c(n4)NC(=O)CS5)CC3)c2n1.Cl (stereo not shown) [TCMDC-134671] | 1210 nM | 12600 nM | – | 1 (1: YES) | 92.69% | 100.49% | 810 nM | 813 nM | 12.59 µM | 12.59 µM | – | – | –
5 | Cc1[nH]c(C)c(-c2ccc(C#Cc3ccc(F)cc3F)cc2)c(=O)c1Br [TCMDC-134692] | 16 nM | 100000 nM | – | – | 89.67% | 88.19% | – | 399 nM | – | – | 100.00 µM | 1 (key: 1: YES; 0: NO) | 400 nM
6 | COc1ccc2nccc([C@@H](O)CN3C4CCC3CC(NCc3ccc5c(n3)NC(=O)CS5)C4)c2n1.Cl (stereo partly shown) [TCMDC-134697] | 1060 nM | 38900 nM | – | 0 (0: NO) | 46.01% | 53.20% | – | 4000 nM | 38.90 µM | 38.90 µM | – | – | –
7 | COc1cc(OC)cc(-c2nn(-c3ccc([N+](=O)[O-])cc3C#N)c(=S)n2Cc2ccco2)c1 [TCMDC-134715] | 744 nM | 100000 nM | 100.00 µM | 1 (1: YES) | 26.66% | 59.14% | 1600 nM | 1600 nM | – | – | – | – | –
8 | N#Cc1cc([N+](=O)[O-])ccc1-n1nc(C(N)=O)n(Cc2cccc(F)c2)c1=S [TCMDC-134721] | 650 nM | 34700 nM | 34.67 µM | 1 (1: YES) | 66.73% | 70.30% | 1120 nM | 1120 nM | – | – | – | – | –
9 | Cc1[nH]c(C)c(-c2ccc(-c3ccc(OC(F)(F)F)cc3)cc2)c(=O)c1Br [TCMDC-134726] | 19 nM | 7760 nM | – | – | 101.74% | 103.66% | – | 26 nM | – | – | 7.76 µM | 1 (key: 1: YES; 0: NO) | 25.7 nM
10 | Cc1[nH]c(C)c(-c2ccc(Oc3ccc(F)cc3)cc2)c(=O)c1Cl [TCMDC-134728] | 19 nM | 56200 nM | – | 1 (1: YES) | 96.35% | 103.17% | 50 nM | 49 nM | 56.23 µM | 56.23 µM | – | – | –
11 | C/C=C/COc1ccc(-c2c(C)[nH]c(C)c(Cl)c2=O)cc1 [TCMDC-134729] | 281 nM | 100000 nM | – | 1 (1: YES) | 83.52% | 96.22% | 470 nM | 469 nM | – | 100.00 µM | – | – | –
12 | COc1ccc2nccc([C@@H](O)CN3CCC(NC(=O)c4cc5c(F)cc(F)cc5[nH]4)CC3)c2n1 [TCMDC-134945] | 769 nM | 10500 nM | – | – | 54.14% | 76.92% | – | 415 nM | – | – | 10.47 µM | 1 (key: 1: YES; 0: NO) | 420 nM
13 | Cc1cccc(Nc2nc(NCCCCN)nc3cc[nH]c(=O)c23)c1.O=C(O)C(F)(F)F [TCMDC-134946] | 487 nM | 28800 nM | 28.84 µM | 0 (0: NO) | 57.54% | 45.06% | 3060 nM | 3060 nM | – | – | – | – | –
14 | CC1CN(Cc2cccc(C#N)c2)CCN1c1ccc(NC(=O)c2cccs2)cc1.O=C(O)C(F)(F)F (stereo not shown) [TCMDC-134969] | 78 nM | 3020 nM | – | – | 50.06% | 40.18% | – | 1640 nM | – | – | 3.02 µM | 0 (key: 1: YES; 0: NO) | –
15 | CCC(C)CN1CCN(c2ccc(NC(=O)c3cccs3)cc2)C(C)C1.O=C(O)C(F)(F)F (stereo not shown) [TCMDC-134996] | 753 nM | 60300 nM | – | – | 97.72% | 83.44% | – | 1050 nM | – | – | 60.26 µM | 1 (key: 1: YES; 0: NO) | –
16 | CC1CN(Cc2ccccc2)CCN1c1ccc(NC(=O)c2cccs2)cc1.O=C(O)C(F)(F)F (stereo not shown) [TCMDC-135005] | 504 nM | 57500 nM | – | – | 105.18% | 99.00% | – | 732 nM | – | – | 57.54 µM | 1 (key: 1: YES; 0: NO) | 730 nM
17 | CC1CN(Cc2cccc(F)c2)CCN1c1ccc(NC(=O)c2cccs2)cc1.O=C(O)C(F)(F)F (stereo not shown) [TCMDC-135009] | 242 nM | 120000 nM | – | – | 59.80% | 66.69% | – | 420 nM | – | – | 120.23 µM | 1 (key: 1: YES; 0: NO) | –
18 | O=C(Nc1ccc(N2CCCN(Cc3cccc(F)c3)CC2)cc1)c1cccs1.O=C(O)C(F)(F)F [TCMDC-135012] | 650 nM | 78500 nM | – | – | 50.47% | 51.73% | – | 1900 nM | – | – | 78.52 µM | 1 (key: 1: YES; 0: NO) | 1900 nM
19 | CN(Cc1cccc(F)c1)C1CCN(c2cc(NC(=O)c3ccc(F)cc3)ccn2)CC1.O=C(O)C(F)(F)F [TCMDC-135018] | 31 nM | 140 nM | 0.14 µM | 0 (0: NO) | 54.82% | 42.75% | 6060 nM | 6060 nM | – | – | – | – | –
20 | O=C(O)C(F)(F)F.O=c1[nH]ccc2nc(N[C@@H]3CCCNC3)nc(Nc3ccc(S(=O)(=O)N4CCOCC4)cc3)c12 [TCMDC-135038] | 347 nM | 45700 nM | 45.71 µM | 1 (1: YES) | 53.41% | 58.16% | 1550 nM | 1540 nM | – | – | – | – | –
21 | C=CCOc1ccc(-c2c(C)[nH]c(C)c(Br)c2=O)cc1 [TCMDC-135042] | 226 nM | 7080 nM | – | – | 92.87% | 107.55% | – | 700 nM | – | – | 7.08 µM | 1 (key: 1: YES; 0: NO) | –
22 | COCCn1c(-c2cccc(Cl)c2)nn(-c2ccc([N+](=O)[O-])cc2Cl)c1=S [TCMDC-135130] | 947 nM | 100000 nM | 100.00 µM | 1 (1: YES) | 51.94% | 48.77% | – | 1600 nM | – | – | – | – | –
23 | COc1ccc2ncc(C#N)c(CCN3C4CCC3CC(NCc3ccc5c(n3)NC(=O)CS5)C4)c2c1.Cl (stereo not shown) [TCMDC-135180] | 630 nM | 6460 nM | – | 0 (0: NO) | 66.14% | 72.52% | 3070 nM | 3070 nM | 6.46 µM | 6.46 µM | – | – | –
24 | C#C[C@H]1O[C@@H](n2cnc3c(Nc4cc(Br)cc(C(F)(F)F)c4)ncnc32)[C@H](O)[C@@H]1O [TCMDC-135185] | 3380 nM | 57500 nM | 57.54 µM | 1 (1: YES) | 92.13% | 83.74% | 530 nM | 533 nM | – | – | – | – | –

From paper PMC6753678, “Fueling Open Innovation for Malaria Transmission-Blocking Drugs: Hundreds of Molecules Targeting Early Parasite Mosquito Stages” (Frontiers in Microbiology, 2019)
